Results on three molecules are retold here after US12404272B2, “Process for making a PD-1/PD-L1 inhibitor and salts and crystalline forms thereof” (Incyte Corporation, priority 2020, dated 2025).

Counter-ions that a name gives are not always drawn.

Common to all, as to assay type: physicochemical
Data set [1] can be described thus: Static storage at elevated temperature and relative humidity, re-analysis by XRPD. The procedure:
In some examples below, X-Ray Powder Diffraction analysis was carried out on a Bruker D8 X-ray Powder Diffractometer (XRPD) instrument using Cu Kα radiation (40 kV, 40 mA) and a θ-2θ goniometer fitted with a Ge monochromator. The incident beam passes through a 2.0 mm divergence slit followed by a 0.2 mm anti-scatter slit and knife edge. The diffracted beam passes through an 8.0 mm receiving slit with 2.5° Soller slits followed by the Lynxeye Detector. The software used for data collection and analysis was Diffrac Plus XRD Commander and Diffrac Plus EVA respectively. Samples were run under ambient conditions as flat plate specimens using powder as received. The sample was prepared on a polished, zero-background (510) silicon wafer by gently pressing onto the flat surface or packed into a cut cavity. The sample was rotated in its own plane. The general experimental procedures for XRPD were: (1) angular range: 2 to 42° 2θ; (2) step size: 0.05° 2θ; and collection time: 0.5 s/step (total collection time: 6.40 min). The extended data collection experimental procedures for XRPD were: (1) angular range: 3 to 30° 2θ; (2) step size: 0.05° 2θ; and collection time: 4 s/step (total collection time: 38.00 min).
In some examples below, X-Ray Powder Diffraction analysis was carried out on a PANalytical Empyrean X-ray Powder Diffractometer (XRPD) instrument using Cu Kα radiation (45 kV, 40 mA) in transmission geometry. A 0.5° slit, 4 mm mask and 0.04 rad Soller slits with a focusing mirror were used on the incident beam. A PIXcel^3D detector, placed on the diffracted beam, was fitted with a receiving slit and 0.04 rad Soller slits. The software used for data collection was X'Pert Data Collector using X'Pert Operator Interface. The data were analysed and presented using Diffrac Plus EVA or HighScore Plus. Samples were prepared and analysed in either a metal or Millipore 96 well-plate in transmission mode. X-ray transparent film was used between the metal sheets on the metal well-plate and powders (approximately 1-2 mg) were used as received. […]

Data set [2] is described as follows: Gravimetric vapour sorption (GVS). Here is the method: Gravimetric Vapour sorption (GVS) was carried out using a SMS DVS Intrinsic moisture sorption analyser, controlled by DVS Intrinsic Control software. The sample temperature was maintained at 25° C. by the instrument controls. The humidity was controlled by mixing streams of dry and wet nitrogen, with a total flow rate of 200 ml/min. The relative humidity was measured by a calibrated Rotronic probe (dynamic range of 1.0-100% RH), located near the sample. The weight change, (mass relaxation) of the sample as a function of % RH was constantly monitored by a microbalance (accuracy ±0.005 mg).
Typically, 5-30 mg of sample was placed in a tared mesh stainless steel basket under ambient conditions. The sample was loaded and unloaded at 40% RH and 25° C. (typical room conditions). A moisture sorption isotherm was performed as outlined below (2 scans per complete cycle). The standard isotherm was performed at 25° C. at 10% RH intervals over a 0-90% RH range. Typically, a double cycle (4 scans) was carried out.
The sample was recovered after completion of the isotherm and re-analysed by XRPD.

A short description of data set [3]: Maturation in solvents (20 vol), dissolution observed. The note with it: matured RT-50° C. for 3 days. Here is the method:
The methanesulfonic acid salt (20 mg) was treated with solvent (20 vol) and matured (RT −50° C., 4 h) for 3 days. Samples were then analyzed by XRPD. Attempts in improve the crystallinity of the scaled up methanesulfonic acid salt was undertaken by subjecting the material to maturation for 72 h in a variety of solvents. A slight improvement in crystallinity was observed from maturing in 2-propanol, ethyl acetate, and tert-butyl methyl ether.

For `Cc1c(Nc2nc(C(F)F)nc3cc(CN4CC[C@@H](O)C4)cnc23)cccc1-c1cccc(-c2nc3cc(CN4CCC(C(=O)O)CC4)cc(C#N)c3o2)c1C` [(R)-1-((7-cyano-2-(3′-((2-(difluoromethyl)-7-((3-hydroxypyrrolidin-1-yl)methyl)pyrido[3,2-d]pyrimidin-4-yl)amino)-2,2′-dimethyl-[1,1′-biphenyl]-3-yl)benzo[d]oxazol-5-yl)methyl)piperidine-4-carboxylic acid], the “XRPD analysis following static storage” value in data set [1] (25° C./97% RH for 5 days) is given as “remained unchanged, however a loss in crystallinity was observed”; in data set [1] (40° C./75% RH for 5 days), “remained unchanged, however a loss in crystallinity was observed”. Besides, in data set [2] (GVS, 0-90% RH), the hygroscopicity entry is reported as “very hygroscopic”. Moreover, the “XRPD analysis following the GVS experiment” value in data set [2] (after GVS isotherm) is “remained unchanged”. This molecule gave a weight uptake in data set [2] (between 0-90% RH, 25° C.) of 19.5 % w/w.

For `Cc1c(Nc2nc(C(F)F)nc3cc(CN4CC[C@@H](O)C4)cnc23)cccc1-c1cccc(-c2nc3cc(CN4CCC(C(=O)O)CC4)cc(C#N)c3o2)c1C` [Free form Form I, (R)-1-((7-cyano-2-(3′-((2-(difluoromethyl)-7-((3-hydroxypyrrolidin-1-yl)methyl)pyrido[3,2-d]pyrimidin-4-yl)amino)-2,2′-dimethyl-[1,1′-biphenyl]-3-yl)benzo[d]oxazol-5-yl)methyl)piperidine-4-carboxylic acid], the “XRPD following static storage” value in data set [1] (7 days at elevated temperature and relative humidity conditions) was “remained unchanged”.

`Cc1c(Nc2nc(C(F)F)nc3cc(CN4CC[C@@H](O)C4)cnc23)cccc1-c1cccc(-c2nc3cc(CN4CCC(C(=O)O)CC4)cc(C#N)c3o2)c1C` [methanesulfonic acid salt, (R)-1-((7-cyano-2-(3′-((2-(difluoromethyl)-7-((3-hydroxypyrrolidin-1-yl)methyl)pyrido[3,2-d]pyrimidin-4-yl)amino)-2,2′-dimethyl-[1,1′-biphenyl]-3-yl)benzo[d]oxazol-5-yl)methyl)piperidine-4-carboxylic acid]: the dissolution in solvent entry in data set [3] (ethanol) and in data set [3] (water) was “complete dissolution” throughout.
